Some test systems named below: SK-MEL-28; CAKI-1; NCI-H226; SK-MEL-2; OVCAR-8; LOX IMVI; MDA-N; HCT-15; UO-31; NCI-H460; Malme-3M; SN12C; RXF 393; K562; Hs-578T; TK-10; COLO 205; UACC-257.
What all share (test): NCI tumour cell line growth inhibition, 48 h

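The compound was tested at five concentrations on cells cultured in 96-well plates, with a 48-hour exposure period. GI50 is the concentration that inhibits growth by half.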 The source made the active and inactive calls. Rule as the data show it: active = GI50 up to about 1.1 µM and inactive = higher.

Turning to `CC(O)(CNS(=O)(=O)c1ccccc1)c1ccccc1` (stereo unspecified), the GI50 with SK-MEL-28, with CAKI-1, in the test on NCI-H226, in the test on SK-MEL-2, in the test with OVCAR-8 and in the test with LOX IMVI was > 100 µM (inactive) in each case. In addition, the GI50 was > 100 µM (inactive) in the test on MDA-N; > 100 µM with HCT-15; > 100 µM (inactive) in the test with UO-31; > 100 µM (inactive) with NCI-H460; > 100 µM (inactive) in the test with Malme-3M; > 100 µM (inactive) in the test with SN12C. Further, the GI50 in the test on RXF 393, in the test with K562, in the test on Hs-578T, in the test on TK-10 and in the test with COLO 205 was > 100 µM (inactive) each time.
On to `CN(C)c1ccc(/C=c2\c3ccccc3n3c2cc(-c2ccccc2)[n+]3C)cc1`, for which the GI50 with SK-MEL-28 is 0.365 µM (active); in the test with CAKI-1, 0.716 µM (active); with NCI-H226 it was < 0.01 µM (active); in the test on SK-MEL-2, 0.175 µM (active); in the test with OVCAR-8, 0.0726 µM (active); with LOX IMVI, 0.118 µM (active). In addition, the GI50 with MDA-N is 0.144 µM (active); with HCT-15 it was 1.2 µM; in the test with UO-31 it was 0.383 µM (active); with NCI-H460 it was 0.103 µM (active); in the test with Malme-3M, 0.153 µM (active); in the test with SN12C, 0.149 µM (active). Also, the GI50 in the test on UACC-257 was 0.243 µM (active); in the test on RXF 393 it was 0.547 µM (active); in the test on K562, 0.07 µM (active); in the test on Hs-578T it was 0.0335 µM (active); in the test on TK-10, 0.624 µM (active); with COLO 205, 0.0143 µM (active).
In the case of `NC(=O)CC(N)c1nnn[nH]1` (stereo unspecified), the GI50 in the test with SK-MEL-28, in the test with CAKI-1, in the test with NCI-H226, in the test on SK-MEL-2, with OVCAR-8 and with LOX IMVI was > 100 µM (inactive) throughout. The GI50 in the test on MDA-N is > 100 µM (inactive); in the test on HCT-15, > 100 µM; with UO-31, > 100 µM (inactive); with NCI-H460 it was > 100 µM (inactive); in the test on Malme-3M, > 100 µM (inactive); in the test on SN12C, > 100 µM (inactive). For the same molecule, the GI50 in the test on UACC-257, in the test with RXF 393, with K562, with Hs-578T, in the test with TK-10 and in the test on COLO 205 was > 100 µM (inactive) throughout.
Turning to `NC1CC(=O)c2csc(Cl)c21` (stereo unspecified), the GI50 with SK-MEL-28 was 17.1 µM (inactive); in the test on CAKI-1 it was 1.86 µM (inactive); in the test on NCI-H226, 37 µM (inactive); in the test with SK-MEL-2 it was 12.9 µM (inactive); with OVCAR-8, 6.61 µM (inactive); with LOX IMVI, 4 µM (inactive). In addition, the GI50 was 8.63 µM (inactive) with MDA-N; 5.41 µM in the test with HCT-15; 5.75 µM (inactive) in the test on UO-31; 22.5 µM (inactive) in the test with NCI-H460; 2.68 µM (inactive) in the test on Malme-3M; 5.42 µM (inactive) in the test on SN12C. Moreover, the GI50 in the test on UACC-257 was 14.9 µM (inactive); in the test on RXF 393, 5.78 µM (inactive); in the test with K562, 2.74 µM (inactive); with Hs-578T, 35.5 µM (inactive); in the test with TK-10 it was 11.5 µM (inactive); in the test on COLO 205, 5.32 µM (inactive).
On to `c1ccc2cc3c(NC4=NCCO4)cccc3cc2c1`, for which the GI50 in the test with SK-MEL-28 was > 100 µM (inactive); in the test on CAKI-1, 52.5 µM (inactive); in the test on NCI-H226 it was 52.2 µM (inactive); in the test with SK-MEL-2, 46.1 µM (inactive); in the test with OVCAR-8, 48.5 µM (inactive); in the test on LOX IMVI, 29.8 µM (inactive). In addition, the GI50 was 1.79 µM (inactive) in the test with MDA-N; > 100 µM in the test on HCT-15; 53 µM (inactive) in the test on UO-31; 29 µM (inactive) in the test with NCI-H460; 36.1 µM (inactive) with Malme-3M; 58.5 µM (inactive) in the test with SN12C. The GI50 with UACC-257 is 48.5 µM (inactive); in the test on RXF 393, > 100 µM (inactive); in the test with K562, 37.2 µM (inactive); in the test on Hs-578T, 41.8 µM (inactive); in the test with TK-10 it was 86.9 µM (inactive); in the test on COLO 205 it was 35.9 µM (inactive).
Regarding `CCN(CC)c1cc2c3c(c1)CCCN3CCC2`, the GI50 with SK-MEL-28, in the test on CAKI-1, with NCI-H226, with SK-MEL-2, with OVCAR-8 and in the test with LOX IMVI was > 10 µM (inactive) each time. In addition, the GI50 was > 10 µM (inactive) in the test with MDA-N; > 10 µM in the test with HCT-15; > 10 µM (inactive) in the test with UO-31; > 10 µM (inactive) in the test with NCI-H460; > 10 µM (inactive) in the test with Malme-3M; > 10 µM (inactive) with SN12C. Besides, the GI50 with UACC-257, with RXF 393, in the test on K562, with Hs-578T, with TK-10 and with COLO 205 was > 10 µM (inactive) each time.
Take `CCOC(=O)/C(C(=O)Nc1cccc(C(F)(F)F)c1)=C(/N)N1CCCC1`: the GI50 in the test on SK-MEL-28 is > 100 µM (inactive); in the test on CAKI-1, > 100 µM (inactive); with NCI-H226 it was 29.2 µM (inactive); in the test with SK-MEL-2, > 100 µM (inactive); in the test with OVCAR-8, 38 µM (inactive); in the test on LOX IMVI it was > 100 µM (inactive). The GI50 in the test on MDA-N is > 100 µM (inactive); in the test on HCT-15, > 100 µM; in the test with NCI-H460, > 100 µM (inactive); with Malme-3M, > 100 µM (inactive); in the test on SN12C it was 41.9 µM (inactive); in the test on UACC-257 it was > 100 µM (inactive). Moreover, the GI50 in the test on RXF 393 is 20.9 µM (inactive); in the test with K562, > 100 µM (inactive); with Hs-578T, 27.2 µM (inactive); in the test on TK-10, > 100 µM (inactive); in the test with COLO 205, > 100 µM (inactive).
Turning to `CC[C@]1(Cc2ccc(OC)c(OC)c2)CN(S(=O)(=O)c2ccc(C)cc2)C[C@@H]1OC(C)=O`, the GI50 in the test on SK-MEL-28 was > 100 µM (inactive); in the test on CAKI-1 it was 95.7 µM (inactive); with NCI-H226, > 100 µM (inactive); in the test with SK-MEL-2, > 100 µM (inactive); with OVCAR-8 it was 58.7 µM (inactive); in the test with LOX IMVI it was > 100 µM (inactive). Besides, the GI50 in the test on MDA-N is > 100 µM (inactive); with HCT-15, > 100 µM; with UO-31 it was > 100 µM (inactive); with NCI-H460, > 100 µM (inactive); in the test with Malme-3M, > 100 µM (inactive); in the test on UACC-257 it was > 100 µM (inactive). The GI50 in the test with RXF 393, with K562, in the test on Hs-578T, in the test on TK-10 and in the test on COLO 205 was > 100 µM (inactive) throughout.

For the origin of these results see ChEMBL document CHEMBL1201862, “PubChem BioAssay data set” (2004).
